The text below walks through data of patent publication US10154990B2, “Medicaments for the treatment or prevention of fibrotic diseases” (Boehringer Ingelheim International GmbH, priority 2004, dated 2018).

As a reminder, the melting point is the temperature, or range, at which the solid turns liquid.

Data set [1] has as its system fibrotic marker genes. The data set is described as follows: Expression of fibrotic marker genes in lung following bleomycin-induced pulmonary fibrosis (real time PCR). The settings on record: bleomycin-treated rats, daily 50 mg/kg, days 1-21, real time PCR normalized to 18S. The class given is in vivo, Male Wistar rats. On the procedure: (B) Effect of a Representative Compound on Expression of Fibrotic Marker Genes Following Bleomycin-induced Pulmonary Fibrosis.
One part of the frozen lung tissue dedicated to investigation of gene expression was cut into small pieces using a sterile scalpel blade. Approximately 100 mg of tissue was then placed into a 2 ml Eppendorf tube and 1.5 ml of Trizol (Invitrogen) was added. A sterile tungsten carbide bead (Qiagen) was then added to the tube and the tube was placed in a Retsch MM300 Tissue disruptor (Qiagen) at a frequency of 30.0 Hz for 8 minutes. After this time, the bead was removed and the sample centrifuged at 12000 rpm for 10 minutes to remove tissue debris. The RNA was extracted using a modified version of the manufacturer's protocol supplied with Trizol. […] The concentration of each sample was then measured using a spectrophotometer. […]
Real Time PCR was carried out in 25 μl reactions, using 25 ng (5 μl) of cDNA per reaction. A quantitative PCR core kit was purchased (Eurogentec) and a master-mix was made up as follows for 100 reactions: 500 μl 10× reaction buffer, 500 μl MgCl2 (50 mM), 200 μl dNTP mix solution (5 mM), 25 μl Hot Goldstar enzyme, 75 μl 18S PDAR, 22.5 μl forward primer, 22.5 μl reverse primer, 15 μl probe and […] DEPC treated water. […]
In order to quantify the gene expression, a standard curve was constructed for each primer set and was included on each plate. […]

Data set [2] relates to Bleomycin-induced Pulmonary Fibrosis. Nature of the data set: Lung morphology following bleomycin-induced pulmonary fibrosis (histology, Masson's Trichrome). The class given is in vivo, Male Wistar rats. As to conditions: bleomycin-treated rats (10 U/kg intratracheal), daily oral treatment with 50 mg/kg, days 1-21, lungs removed 21 days after instillation. The method, then: (A) Effect of a Representative Compound on Lung Morphology Following Bleomycin-induced Pulmonary Fibrosis. Bleomycin sulfate (Bleomycin […]) was purchased from a local pharmacy. All experiments were performed in accordance with German guidelines for animal welfare, performed by persons certified to work with animals and approved by the responsible authorities. Male Wistar rats were intratracheally injected with Bleomycin sulfate (10U/kg body weight in 300 μl saline) or saline alone (saline control) using a catheter (0.5 mm internal diameter, 1.0 mm external diameter) through the nasal passage, following exposure to the anaesthetic Isofluorane for 5 minutes. The following day, the rats were orally treated with Example A (compound (m)) or saline suspended in 1 ml 0.1% Natrosol. Control rats were administered 1 ml 0.1% Natrosol (vehicle control). [table] 21 days following bleomycin instillation, the rats were killed with a lethal intraperitoneal injection of NarcorenTM (Pentobarbital Sodium, Rhone Merieux). The lungs were then removed, blotted dry and half was snap frozen in liquid nitrogen and stored at -80° C. The other half was fixed in 4% formalin for subsequent paraffin embedding and histology. […] Collagen deposition was assessed using Masson's Trichrome staining. […]

`COC(=O)c1ccc2c(c1)NC(=O)/C2=C(\Nc1ccc(N(C)C(=O)CN2CCN(C)CC2)cc1)c1ccccc1` [Compound (u), 3-Z-[1-(4-(N-((4-methyl-piperazin-1-yl)-methylcarbonyl)-N-methyl-amino)-anilino)-1-phenyl-methylene]-6-methoxycarbonyl-2-indolinone]: the “expression of fibrotic marker genes (procollagen I, TGFb) in the lung” value in data set [1] (FIGS. 5 and 6, vs bleomycin + vehicle) is “significant (p≤0.0001) inhibition”. The “lung fibrosis (lung morphology, collagen deposition by Masson's Trichrome staining)” value in data set [2] is listed as “consistent, nearly complete reversal of lung fibrosis”.
Take `COC(=O)c1ccc2c(c1)NC(=O)/C2=C(\Nc1ccc(N(C)C(=O)CN(C)C)cc1)c1ccccc1` [Compound (m), 3-Z-[1-(4-(N-dimethylaminomethylcarbonyl-N-methyl-amino)-anilino)-1-phenyl-methylene]-6-methoxycarbonyl-indolinone]: in data set [1] (FIGS. 2 and 3, vs bleomycin + vehicle), the “expression of fibrotic marker genes (procollagen I, fibronectin) in the lung” value is given as “significant (p≤0.0001) inhibition”. Moreover, the “lung fibrosis (lung morphology, collagen deposition by Masson's Trichrome staining)” value in data set [2] was “consistent, nearly complete reversal of lung fibrosis”.
The compound `CCNC(=O)c1ccc2c(c1)NC(=O)/C2=C(\Nc1ccc(N(CCN(C)C)C(C)=O)cc1)c1ccccc1` [(ca), 3-Z-[1-(4-(N-(2-dimethylamino-ethyl)-N-acetyl-amino)-anilino)-1-phenyl-methylene]-6-ethylcarbamoyl-2-indolinone] yielded a melting point of 266 to 270 °C.
Same read-out and setting: then `COC(=O)c1ccc2c(c1)NC(=O)/C2=C(\Nc1ccc(N(C)C(=O)CN(C)C)c(C#N)c1)c1ccccc1` [(v), 3-Z-[1-(3-cyano-4-(N-dimethylaminomethylcarbonyl-N-methyl-amino)-anilino)-1-phenyl-methylene]-6-methoxycarbonyl-2-indolinone], with 163 to 165 °C; and `COC(=O)c1ccc2c(c1)NC(=O)/C2=C(\Nc1ccc(-c2nccn2C)cc1)c1cccc(CCC(=O)O)c1` [(ay), 3-Z-[1-(4-(1-methyl-imidazol-2-yl)-anilino)-1-(3-(2-carboxy-ethyl)-phenyl)-methylene]-6-methoxycarbonyl-2-indolinone], with 184 to 190 °C; and `COC(=O)c1ccc2c(c1)NC(=O)/C2=C(\Nc1ccc(CN(C)C)cc1)c1cccc(CCC(=O)O)c1` [(aw), 3-Z-[1-(4-dimethylaminomethyl-anilino)-1-(3-(2-carboxy-ethyl)-phenyl)-methylene]-6-methoxycarbonyl-2-indolinone], with 163 to 167 °C.
For `COC(=O)c1ccc2c(c1)NC(=O)/C2=C\Nc1ccc(N(C)C(=O)CN(C)C)cc1` [(co), 3-Z-[1-(4-(N-dimethylaminomethylcarbonyl-N-methyl-amino)-anilino)-methylene]-6-methoxycarbonyl-2-indolinone], the melting point is 250 to 255 °C.
Compound `CNCc1ccc(N/C(=C2\C(=O)Nc3cc(C(=O)O)ccc32)c2ccccc2)cc1` [(an), 3-Z-[1-(4-methylaminomethyl-anilino)-1-phenyl-methylene]-6-carboxy-2-indolinone] displayed a melting point of 287 °C.
